What all share (type): biochemical
The subject of experiment [1] is β-glucosidase BGI of A. oryzae (CBS 12559), molecular mass greater than 130,000. In words: Inhibition of β-glucosidase BGI activity by glucose or δ-gluconolactone, PNPG as substrate. How it is done: (§1) The assay of the β-glucosidase activity is carried out by incubating, for 20 minutes at 40° C., 1 volume of enzymatic sample with 1 volume of p-nitrophenol β-D-glucoside (PNPG) (4 mM in 100 mM acetate buffer, pH 4.4). The quantity of PNP (pnitrophenol) liberated is estimated by adding 6 volumes of 0.1 M Na2 CO3 and monitoring the absorbance reading at 400 nm. The enzymatic activity is expressed in nanokatals per ml (nkat/ml) of enzymatic solution. One nanokatal corresponds to the number of nanomoles of PNP liberated per second under the abovementioned conditions.
(§2) The residual enzymatic activity is estimated after incubating the mixture for 20 minutes at 40° C.

Experiment [2] relates to β-glucosidase BGII of A. oryzae (CBS 12559), exocellular, molecular mass about 30,000. In words: Inhibition of β-glucosidase BGII activity by glucose or δ-gluconolactone, PNPG as substrate. The following applies: PNPG 4 mM, 20 minutes at 40° C. How it is done:
as §1, §2

Experiment [3] deals with T1, β-glucosidase of A. niger purified from the KLERZYME enzymatic preparation (Aspergillus niger, UniProt A2RAL4).
T1 construct: purchased GIST-BROCADES, SECLIN, FRANCE
In words: Inhibition of KLERZYME β-glucosidase activity by glucose or δ-gluconolactone, PNPG as substrate. How it is done:
as §1, §2

The Ki is a dissociation constant, usually derived from enzyme kinetics or from competition with a known ligand. The remaining activity is the share of the control activity or signal that is left under treatment.

T1 sequence (A2RAL4 20-860): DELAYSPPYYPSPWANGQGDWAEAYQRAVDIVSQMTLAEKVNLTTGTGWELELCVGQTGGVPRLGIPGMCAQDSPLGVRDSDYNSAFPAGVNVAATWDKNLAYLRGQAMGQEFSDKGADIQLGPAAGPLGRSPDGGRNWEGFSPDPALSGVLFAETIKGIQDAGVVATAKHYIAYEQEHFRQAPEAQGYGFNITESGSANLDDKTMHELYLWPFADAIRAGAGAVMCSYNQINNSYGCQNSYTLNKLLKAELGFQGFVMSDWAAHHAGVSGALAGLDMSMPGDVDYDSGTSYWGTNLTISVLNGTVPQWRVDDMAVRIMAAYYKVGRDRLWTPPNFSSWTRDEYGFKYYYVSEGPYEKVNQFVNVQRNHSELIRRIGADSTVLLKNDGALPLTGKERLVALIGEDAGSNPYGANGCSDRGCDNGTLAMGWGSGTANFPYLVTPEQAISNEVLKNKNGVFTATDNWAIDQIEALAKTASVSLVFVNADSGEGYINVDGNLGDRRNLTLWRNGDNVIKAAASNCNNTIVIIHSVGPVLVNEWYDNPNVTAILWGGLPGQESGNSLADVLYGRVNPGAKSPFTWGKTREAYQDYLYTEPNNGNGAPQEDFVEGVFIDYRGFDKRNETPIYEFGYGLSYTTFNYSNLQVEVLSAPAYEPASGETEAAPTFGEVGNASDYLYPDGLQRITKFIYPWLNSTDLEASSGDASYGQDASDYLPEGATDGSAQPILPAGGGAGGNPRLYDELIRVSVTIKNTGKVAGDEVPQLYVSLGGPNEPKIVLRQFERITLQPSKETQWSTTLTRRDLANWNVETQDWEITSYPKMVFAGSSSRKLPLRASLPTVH

Consider `O=C1O[C@H](CO)[C@@H](O)[C@H](O)[C@H]1O` [gluconolactone, δ-gluconolactone], for which the “inhibition in the presence of gluconolactone” value in experiment [1] (1 g/l of gluconolactone, PNPG 4 mM, 20 minutes at 40° C.) is “practically completely inhibited”; in experiment [3] (KLERZYME β-glucosidase, 1 g/l of gluconolactone, PNPG 4 mM, 20 minutes at 40° C.) it was “practically completely inhibited”. The entries for the “activity retained in the presence of gluconolactone” value in experiment [2] (1 g/l of gluconolactone) and in experiment [2] (10 g/l of gluconolactone) were “more than 30%” and 20%, respectively.

As to `OC[C@H]1OC(O)[C@H](O)[C@@H](O)[C@@H]1O` (some centres unmarked) [glucose], in experiment [1] (25 g/l of glucose, PNPG 4 mM, 20 minutes at 40° C.), the “activity remaining in the presence of glucose” value is reported as “about 15%”. For the same compound, the “inhibition in the presence of glucose” value in experiment [1] (50 g/l of glucose, PNPG 4 mM, 20 minutes at 40° C.) was “practically completely inhibited”; in experiment [2] (100 g/l of glucose) it was 57%; in experiment [3] (KLERZYME β-glucosidase, 50 g/l of glucose, PNPG 4 mM, 20 minutes at 40° C.) it was “practically completely inhibited”. Besides, the Ki in experiment [1] (read-out: inhibition constant (Ki) for glucose, with respect to PNPG, Lineweaver-Burk representation, competitive inhibitor) came to 3.5 mM. For the same compound, in experiment [2] (25 g/l of glucose), the “activity retained in the presence of glucose” value is “about 80%”. The remaining activity at 25000 µg/mL in experiment [3] (20 min, pH 4.4, read-out: activity remaining in the presence of glucose) is about 10%.

(Values after patent US6087131A, “β-glucosidase from filamentous fungi, and uses thereof” (Institut National de la Recherche Agronomique - I.N.R.A., priority 1995, dated 2000).)
